Reference: US20210322508A1, “PEPTIDES AND COMPOSITIONS FOR TARGETED TREATMENT AND IMAGING” (SIGNABLOK, INC., priority 2018, published 2021)
Blank lines part the entries; values can stand above or below the molecule they belong to. Non-standard residues stand in square brackets, D forms with d. Residues, ends and D or L forms follow the SMILES beside them. No end group written: not given here. Met(O) = CS(=O)CC[C@H](N)C(=O)O; PTX = not defined here

Columns and labels:
[1] = system: J774 macrophages; assay: in vitro macrophage uptake (endocytosis) of rho B-labeled peptides and lipopeptide complexes; type: cell-based, murine; settings: 1 h pretreatment: 40 μM cytochalasin D, 400 μg/mL fucoidan, 10 μM BLT-1; uptake 4 h and 22 h
Description: In Vitro Macrophage Uptake of GF9HDL and GA/E31HDL A quantitative in vitro macrophage assay of endo-cytosis of rho B-labeled HDL-mimicking lipopeptide complexes by J774 macrophage was performed as described. (18-20) Briefly, BALB/c murine macrophage J774A.1 cells (ATCC) were cultured at 37° C. with 5% CO2 in Dulbecco's modified Eagle's medium (Cellgro Mediatech, Manassas, Va.) with 2 mM glutamine, 100 U/mL penicillin, 0.1 mg/mL streptomycin, and 10% heat-inactivated fetal bovine serum (Cellgro Mediatech) and grown to approximately 90% confluency in 12-well tissue culture plates (Corning Costar, Corning, N.Y.).
Cells were washed twice using phosphate-buffered saline and lysed using Passive Lysis Buffer (Promega, Madison, Wis.). Rho B fluorescence was measured in the lysates with 544-nm excitation and 590-nm emission filters, using a Fluoroscan Ascent CF fluorescence microplate reader (Thermo Labsystems, Vantaa, Finland). Protein concentrations in the lysates were measured using Bradford reagent (Sigma-Aldrich) and an MRX microplate reader (Dynex Technologies, Chantilly, Va.) according to the manufacturer's recommended protocol.

[2] = system: PVNS patients; settings: cited from earlier work
[3] = system: DBA/1 mice with collagen-induced arthritis; assay: Collagen-induced arthritis (CIA) model; settings: 5 mg/kg i.p. daily 14 days, free peptides
Description: Animal studies were performed by Bolder BioPATH (Boulder, Colo., USA). CIA was induced in male 6- to 7-week-old DBA/1 mice by immunization with bovine type II collagen. Briefly, mice were injected intradermally with 100 μl of Freund's complete adjuvant containing 250 μg of bovine type II collagen (2 mg/ml final concentration) at the base of the tail on day 0 and again on day 21. On day 24, mice were randomized by body weight into treatment groups. […] Mice were weighed on study days 24, 26, 28, 30, 32, 34, 36 and 38 (prior to necropsy). Daily clinical scores were given on a scale of 0-5 for each of the paws on days 24-38. On day 38, mice were killed for necropsy.
At the end of study, fore paws, hind paws and knees were harvested, fixed in 10% neutral buffered formalin for 1-2 days, and then decalcified in 5% formic acid for 4-5 days before standard processing for paraffin embedding. Sections (8 μm) were cut and stained with toluidine blue (T blue). Hind paws, fore paws and knees were embedded and sectioned in the frontal plane. Six joints from each animal were processed for histopathological evaluation. The joints were then assessed using 0-5 scale for inflammation, pannus formation, cartilage damage, bone resorption and periosteal new bone formation. A summed histopathology score (sum of five parameters, 0-25 scale) was also determined.
Animal studies were performed by Bolder BioPATH (Boulder, Colo., USA). CIA was induced in male 6- to 7-week-old DBA/1 mice by immunization with bovine type II collagen. Briefly, mice were injected intradermally with 100 μl of Freund's complete adjuvant containing 250 μg of bovine type II collagen (2 mg/ml final concentration) at the base of the tail on day 0 and again on day 21. On day 24, mice were randomized by body weight into treatment groups. […] Starting day 24, mice were injected i.p. intraperitoneally daily for 14 consecutive days with 5 mg/kg G-KV21, G-HV21, G-TE21, M-TK32 and M-VE32 or with PBS (vehicle). Mice were weighed on study days 24, 26, 28, 30, 32, 34, 36 and 38 (prior to necropsy). Daily clinical scores were given on a scale of 0-5 for each of the paws on days 24-38. On day 38, mice were killed for necropsy.

[4] = system: mice with collagen-induced arthritis (CIA); assay: collagen-induced arthritis (CIA) in mice; settings: CIA mice
Text: As described herein, starting on day 24 after immunization, mice with CIA were intraperitoneally (i.p.) administered daily for 14 consecutive days with vehicle (black diamonds), dexamethasone (black squares), GF9 (white circles), GF9-LPC (black circles) and GA/E31-LPC (half black half white circles) at indicated doses. Daily clinical scores were given on a scale of 0-5 for each of the paws on days 24-38. On day 38, mice were killed and the histopathological examination of mouse joints was performed. Histopathological scores of inflammation (I), pannus (P), cartilage damage (CD), bone resorption (BR) and periosteal new bone formation (PBF) are shown. Summed histopathology scores were calculated as the sum of all five histopathological parameters. All results are expressed as the mean±SEM (n=10 mice per group).
Mouse body weight (BW) was measured every other day from day 24 to day 38. Mean BW changes were calculated as a percentage of the difference between beginning (day 24) and final (day 38) BWs of the CIA mice intraperitoneally (i.p.) treated daily for 14 consecutive days with vehicle, dexamethasone, GF9, GF9-LPC and GA/E31-LPC at indicated doses. All results are expressed as the mean±SEM (n=10 mice per group).
Plasma was collected on days 24, 30 and 38 from arthritic mice treated with vehicle (black diamonds), GF9 (white circles), GF9-LPC (black circles) and GA/E31-LPC (half black half white circles). Plasma samples were analyzed for concentrations of interleukin-1b (IL-1b), IL-6, and colony-stimulating factor 1 (CSF1). Results are expressed as the mean±SEM (n=5 mice per group).

[5] = system: TGCT patients; settings: cited from earlier work
[6] = system: Hepa 1-6 syngeneic hepatocellular carcinoma; settings: orthotopic Hepa 1-6, Wu et al. 2019, cited from earlier work
[7] = system: human cancer xenografts; assay: PTX-TREM-1/TRIOPEP tumor suppression in human cancer xenografts; type: in vivo; settings: free and SLP-bound form
Text: Tumor suppression studies using PTX-TREM-1/TRIOPEP formulations in free or SLP-bound form can be performed in animal models of cancer similarly as described herein (see e.g., the examples 7 and 8). Female 6-8 week old NU/J mice can be obtained from the Jackson Laboratory (Bar Harbor, Me.) Human cancer cell lines including but not limited to human carcinoma, human pancreas or human breast cancer cell lines can be obtained from ATCC. […] Human cancer xenografts are established by injecting subcutaneously into the right flanks certain amounts of viable cells per mouse. […] When tumor grows to approximately 125 mm^3 (100-150 mm^3), animals are pair-matched by tumor size into treatment and control groups. Either PTX (TAXOL®; 30 mg/kg PTX) or PTX-TREM-1/TRIOPEP formulations in free (60 mg/kg PTX) or SLP-bound (30 mg/kg PTX) are intravenously administered to the animals via tail vein. Clinical observations, body weights and tumor volume measurements are made twice a week once tumors become measureable. It should be noted that TAXOL® is formulated with a detergent Cremophor that in itself is cytotoxic and is also the source of numerous side effects during chemotherapy. The Cremophor content of TAXOL® is about 80× that of paclitaxel per ml.

[8] = biological target: T1, TREM-1 (triggering receptor expressed on myeloid cells-1) on murine J774A.1 macrophages (mouse, UniProt Q9JKE2 21-230); assay: confocal immunofluorescence on macrophages; colocalisation only, no direct binding assay
T1 construct: whole, on cells; the cells are murine
T1 sequence (looked up): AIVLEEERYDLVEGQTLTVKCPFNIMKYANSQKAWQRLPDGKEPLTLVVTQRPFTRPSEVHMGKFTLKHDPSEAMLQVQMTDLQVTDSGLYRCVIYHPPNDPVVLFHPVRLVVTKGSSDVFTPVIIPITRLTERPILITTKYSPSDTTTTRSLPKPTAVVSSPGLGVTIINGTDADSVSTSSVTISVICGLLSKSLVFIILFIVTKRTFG
Description: (§1) Immunofluorescence analysis of TREM-1 and TREM-1/TRIOPEP in the cell membrane was performed using the standard, well-known in the art methods as described in Shen and Sigalov J Cell Mol Med 2017, 21:2524-2534, and Rojas et al. 2018, herein incorporate by reference.
(§2) BALB/c murine macrophage J774A.1 cells were grown at 37° C. in six-well tissue culture plates containing glass coverslips. After reaching target confluency of approximately 50%, cells were incubated for 6 h at 37° C. with Dylight 488-labeled GF9 or TREM-1/TRIOPEP-sSLP that contained Dylight 488-labeled GE31. TREM-1 staining was performed was performed using an Alexa 647-labeled rat anti-mouse TREM-1 antibody (Bio-Rad, Hercules, Calif.). ProLong Gold Antifade DAPI (4′,6′-diamidino-2-phenylindole) mounting medium was used to mount coverslips, and the slides were photographed using an Olympus BX60 fluorescence microscope. Confocal imaging was performed with a Leica TCS SP5 II laser scanning confocal microscope.

[9] = biological target: T1, TREM-1 (triggering receptor expressed …); assay: confocal immunofluorescence on macrophages, labelled peptide against TREM-1 staining; colocalisation only, no direct binding assay
Description: as §1, §2

Molecule: CCCCCCC1CCCC1=NNC(N)=S (stereo not shown) [BLT-1, Blocker of lipid transport 1, reference compound]
effect of scavenger receptor inhibitor on macrophage uptake of GF9-HDL and GA/E31-HDL [1]: similarly inhibited the uptake of the complexes at both time points but to a lesser extent

Molecule: Cc1ccc(NC(=O)c2ccc(CN3CCN(C)CC3)cc2)cc1Nc1nccc(-c2cccnc2)n1 [Imatinib]
symptomatic improvement ([2]; 16 of 22 patients assessable for symptoms): 73%
overall response rate per RECIST ([2]; 27 evaluable patients, Cassier et al. 2012): 19%
stable disease ([2]; Twenty of 27 patients): 74%

Molecule: CSCC[C@H](NC(=O)[C@H](CCC(=O)O)NC(=O)[C@H](CCC(=O)O)NC(=O)[C@H](CCC(N)=O)NC(=O)[C@H](Cc1c[nH]c2ccccc12)NC(=O)[C@H](CCCCN)NC(=O)[C@H](CCCCN)NC(=O)[C@H](CCC(N)=O)NC(=O)[C@H](Cc1ccccc1)NC(=O)[C@H](CC(=O)O)NC(=O)[C@H](CC(=O)O)NC(=O)[C@H](CC(C)C)NC(=O)[C@H](Cc1ccc(O)cc1)NC(=O)[C@@H]1CCCN1C(=O)[C@H](Cc1ccccc1)NC(=O)[C@H](Cc1ccc(O)cc1)NC(=O)[C@H](CCCCN)NC(=O)[C@H](CC(C)C)NC(=O)[C@@H](NC(=O)[C@@H]1CCCN1C(=O)[C@@H](NC(=O)[C@H](CCCCN)NC(=O)[C@H](Cc1c[nH]c2ccccc12)NC(=O)[C@@H](N)CCSC)[C@@H](C)O)[C@@H](C)O)C(=O)N[C@@H](CCC(=O)O)C(=O)N[C@@H](CC(C)C)C(=O)N[C@@H](Cc1ccc(O)cc1)C(=O)N[C@@H](CCCNC(=N)N)C(=O)N[C@@H](CCC(N)=O)C(=O)N[C@@H](CCCCN)C(=O)N[C@H](C(=O)N[C@@H](CCC(=O)O)C(=O)O)C(C)C [M-VE32] (H-MWKTPTLKYFPYLDDFQKKWQEEMELYRQKVE-OH)
CIA severity; bone and cartilage damage [3]: ameliorates CIA and protects against bone and cartilage damage
tolerability in arthritic mice (body weight changes) ([4]; day 24 to day 38): well-tolerated by arthritic mice
arthritis (clinical arthritis score) ([4]; treatment days 24-38): ameliorate the disease

Molecule: FC(F)(F)c1ccc(CNc2ccc(Cc3c[nH]c4ncc(Cl)cc34)cn2)cn1 [Pexidartinib]
tumor volume ([5]; Phase 2 study): prolonged regression in tumor volume in most patients
liver toxicity ([5]; Phase 3 study suspended): two reported cases of nonfatal, serious liver toxicity
partial response ([5]; extension study, 23 patients, Tap et al. 2015): 12 patients
stable disease ([5]; extension study, 23 patients): 7 patients

Molecule: C=C1[C@@H](C)[C@H]2[C@H](Cc3ccccc3)NC(=O)[C@]23[C@H](OC(C)=O)/C=C/[C@@](C)(O)C(=O)[C@@H](C)C/C=C/[C@H]3[C@@H]1O [cytochalasin D, reference compound]
effect of scavenger receptor inhibitor on macrophage uptake of GF9-HDL and GA/E31-HDL [1]: significantly inhibited

Molecule: GLLSGSLVF [mGF9-G, control murine GF9-G peptide, reference compound]
tumor growth (and survival), standalone treatment [6]: do not affect tumor growth and survival

Molecule: GLLSKSLVF [mGF9, murine GF9 peptide]
tumor growth and survival, combined with anti-PD-L1 antibody ([6]; 25 mg/kg i.p. daily): synergistically inhibits tumor growth and improves survival

Molecule: PTX-GFLSKSLVFPLGEEMRDRARAHVDALRTHLA ({PTX}-GFLSKSLVFPLGEEMRDRARAHVDALRTHLA; reading uncertain; also: printed as PTX-GFLSKSLVFPLGEEMRDRARAHVDALRTHLA) [PTX-TREM-1/TRIOPEP]
anticancer activity (tumor inhibition, survival rate) as compared to PTX [7]: anticipated to have a significantly higher anticancer activity
tolerability in cancer mice as compared to PTX [7]: anticipated to be substantially better tolerated by cancer mice

Molecule: fucoidan [reference compound]
effect of scavenger receptor inhibitor on macrophage uptake of GF9-HDL and GA/E31-HDL [1]: substantially suppressed endocytosis of TREM-1 inhibitor complexes at 22 hours but not at 4 hours

binding result [8]: binds
B1: TREM-1 inhibitory peptide GF9 (GFLSKSLVF, human TREM-1 213-221) (peptide)
peptide: GFLSKSLVF
modifications: not fully specified
notes: also called TREM-1 modulatory peptide GF9

binding result [9]: binds
B2: TREM-1-related trifunctional peptide (TREM-1/TRIOPEP) GE31, methionine sulfoxidized (peptide)
peptide: GFLSKSLVFPYLDDFQKKWQEE[Met(O)]ELYRQKVE
modifications: not fully specified; printed as GFLSKSLVFPYLDDFQKKWQEEM(O)ELYRQKVE; also: delivered in spherical synthetic lipopeptide particles (TREM-1/TRIOPEP-sSLP)
notes: In the cytokine assays it was used as an equimolar mixture with GA31; also called TREM-1 modulatory peptide GE31
